In ChEMBL document CHEMBL4602629, “Isolation of three new meroterpenoids and seven known compounds from Albatrellus yasudae and their Aβ-aggregation inhibitory activity” (Bioorg Med Chem Lett, 2020):

Target: Amyloid-beta precursor protein (Homo sapiens, UniProt P05067)
Assay: Inhibition of human amyloid beta (1 to 40) aggregation after 24 hrs by ThT fluorescence assay

Amyloid-beta precursor protein, sequence (P05067 whole entry): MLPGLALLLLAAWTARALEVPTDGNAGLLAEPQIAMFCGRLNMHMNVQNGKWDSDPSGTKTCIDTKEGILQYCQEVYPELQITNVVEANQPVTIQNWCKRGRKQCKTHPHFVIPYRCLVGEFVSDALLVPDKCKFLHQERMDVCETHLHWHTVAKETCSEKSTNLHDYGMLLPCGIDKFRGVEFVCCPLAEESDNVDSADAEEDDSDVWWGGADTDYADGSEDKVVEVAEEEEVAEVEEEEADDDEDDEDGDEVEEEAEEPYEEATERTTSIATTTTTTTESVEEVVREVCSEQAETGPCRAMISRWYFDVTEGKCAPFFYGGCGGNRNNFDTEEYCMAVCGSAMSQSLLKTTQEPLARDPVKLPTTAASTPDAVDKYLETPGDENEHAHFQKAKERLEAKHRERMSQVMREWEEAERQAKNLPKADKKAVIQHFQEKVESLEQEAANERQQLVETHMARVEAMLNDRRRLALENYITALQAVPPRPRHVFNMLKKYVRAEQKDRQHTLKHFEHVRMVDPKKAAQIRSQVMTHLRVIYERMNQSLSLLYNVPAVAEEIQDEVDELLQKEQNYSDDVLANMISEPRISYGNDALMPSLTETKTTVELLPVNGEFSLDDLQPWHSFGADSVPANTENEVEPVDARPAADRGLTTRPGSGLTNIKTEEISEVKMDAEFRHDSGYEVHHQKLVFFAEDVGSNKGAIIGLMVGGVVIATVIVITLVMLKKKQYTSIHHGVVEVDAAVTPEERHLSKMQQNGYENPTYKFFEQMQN

| Compound | IC50 |
| --- | --- |
| COc1c(O)c(O)c(-c2c(C)c(C/C=C(\C)CC/C=C(\C)CCC=C(C)C)c(OC)c(O)c2O)c(C)c1C/C=C(\C)CC/C=C(\C)CCC=C(C)C | 12.3 µM |
| CC(C)=CCC/C(C)=C/CC/C(C)=C/Cc1c(C)cc(O)c(O)c1O | 16.7 µM |
| CC(C)=CCC/C(C)=C/CC/C(C)=C/Cc1c(C)cc(O)cc1O | 19.9 µM |
| COC(=O)c1c(C)cc(O)c(C/C=C(\C)CC/C=C(\C)CCC=C(C)C)c1O | 221 µM |
| CC(C)=CC(=O)C/C(C)=C/CC/C(C)=C/Cc1c(O)cc(C)c(C(=O)O)c1O | 151 µM |
| CC(C)=CCC/C(C)=C/CCC1(C)C=Cc2c(O)cc(C)cc2O1 (stereo unspecified) | 68 µM |
| COc1c(O)c(O)cc(C)c1C/C=C(\C)CC/C=C(\C)CCC=C(C)C | 29.3 µM |
| CCCCCCCCCCCCCCC[C@@H](O)C(=O)N[C@@H](CO[C@@H]1O[C@H](CO)[C@@H](O)[C@H](O)[C@H]1O)[C@H](O)/C=C/CC/C=C(\C)CCCCCCCCC [CEREBROSIDE] | 62.7 µM |
| CC(C)=CCC/C(C)=C/CC[C@@]1(C)C=Cc2c(cc(C)c(C(=O)O)c2O)O1 [DAURICHROMENIC ACID] | 24.7 µM |
| CC(C)=CCC/C(C)=C/CC/C(C)=C/Cc1c(O)cc(C)c(C(=O)O)c1O [GRIFOLIC ACID] | 20.3 µM |
| CC(C)=CCC/C(C)=C/CC/C(C)=C/Cc1c(O)cc(C)cc1O [GRIFOLIN] | 149 µM |
